The source of these data is PMC5374710, “Discovery of the first dual GSK3β inhibitor/Nrf2 inducer. A new multitarget therapeutic strategy for Alzheimer’s disease” (Scientific Reports, 2017).

Structures are written as SMILES. Several values for one entry are separate records, joined by “and”; a condition that tells them apart may be missing. Equal values may be shown once. A value given as a limit tells only on which side of the number the result lay.

For orientation: IC50 means the concentration at which inhibition is half-maximal.

The test system of series [1] is SH-SY5Y cells. The experiment in a line: Cytotoxicity in SH-SY5Y neuroblastoma cell line (MTT). As to conditions: 24 h.
Procedure: (§4) Viability was measured as MTT reduction in presence of increasing concentrations of derivatives. Values are expressed as LD50 calculated from dose-response curves of four different concentrations.
(§5) Cells were cultured in 48-well (SH-SY5Y, 1x10^5 cells per well) or 96-well plates (HepG2, 1x10^5 cells per well) for 24 h. […] Control cells were incubated with the same concentration of DMSO (0.1 % final concentration) without any drug.
Series [2] relates to HepG2 cells. Nature of the series: Hepatotoxicity in HepG2 cell line (MTT). To be noted: 24 h.
Procedure: Thus, it is relevant to study the potential neurotoxicity and hepatotoxicity of the novel dual GSK3β inhibitors-Nrf2 inducers 5a–t.
as §4
HepG2 cells were cultured according to supplier indications in EMEM supplemented with 10 % heat-inactivated FBS, 100 µg/mL streptomycin and 100 units/mL penicillin. Cells were maintained at 37 °C in humidified atmosphere of 95 % air and 5 % CO2. For experimental procedures, cells were cultured in 96-well plates at density of 1x10^5 cells/well. Treatments were performed in 1% FBS medium unless other concentration was specified. Cells were used from 4 up to 13 passages.
as §5
In series [3] the target is T1, GSK3β (Homo sapiens, UniProt P49841).
T1 construct: purchased Promega V1991
The experiment in a line: GSK3β inhibition, luminescence Kinase-Glo assay. The series is classed as biochemical. To be noted: for IC50: four concentrations 0.1, 1, 10, 30 μM, ATP 1 μM, 1 h; for Ki: calculated from IC50 by Cheng-Prusoff equation, Km ATP 2.345 µM, read-out: Ki (apparent equilibrium dissociation constant).
Procedure: GSK3β inhibitory activity was evaluated using the method developed by Baki[66], with modifications. Compounds were dissolved in assay buffer, containing 40 mM Tris (pH 7.5), 20 mM MgCl2, 0.1 mg/ml BSA (bovine serum albumin) and 50 μM dithiothreitol (DTT) at the desired concentrations. Firstly, 10 μl of enzyme (10 ng) and 10 μl of each compound were mixed for 30 min. Then, 20 μl of a mixture of ATP (1 μM) and GSK3β peptidic substrate were added to each well. The mixture was incubated for 60 min at 30 °C. Thereafter, the remaining ATP concentration was measured with the Kinase-Glo system following instructions from the supplier. Luminescence was measured in an Orion II microplate luminometer (Berthold, Germany) as relative light units (RLU). […] IC50 values were calculated by non-linear regression analysis of individual concentration-response curves using GraphPad Prism 5.0 software (San Diego, CA, USA).
The ability of the compounds to inhibit GSK3β was evaluated using the method developed by Baki^9 with some modifications. The tested compounds were dissolved in assay buffer, containing 40 mM Tris (pH 7.5), 20 mM MgCl2, 0.1 mg/ml BSA (bovine serum albumin) and 50 µM dithiothreitol (DTT), to achieve final reaction concentrations of 0.1, 1, 10 and 30 µM. […] The GSK3β inhibition assay was performed in white 96-well plates, in duplicates. Firstly, 10 µl of enzyme (10 ng) were added to each well, followed by 10 µl of the compounds at the desired concentration. After 30 minutes, 20 µl of a mixture of ATP and GSK3β peptidic substrate were added to each well, achieving a final concentration of 1 µM of ATP and 25 of µM peptidic substrate. The mixture was incubated at 30 °C for 60 minutes. Once the reaction was finished, the remaining ATP concentration was measured by adding 40 µl/well of Kinase-Glo reagent. The luminescence was measured in an Orion II microplate luminometer (Berthold, Germany) as relative light units (RLU). The luminescence recorded is proportional to the amount of ATP present in each well.
Apparent Ki for each compound were calculated from GSK3β Km value for ATP, applying the Cheng-Prusoff equation^10,11 in its simplified form: Ki = IC50/(1+([S]/Km)), in which S refers to the ATP concentration and Km is the Michaelis constant of the substrate for GSK3β.

Series [4] deals with primary rat glial cells. Nature of the series: ROS production in LPS-stimulated primary glial cultures (H2DCFDA). As to conditions: Glial cell, 24 h pre-incubation, 18 h co-incubation with LPS, 3 h with fluorescent dye, read-out: IC50 ROS reduction. The class given is cell-based.
From the text: (§1) Therefore, we envisaged the study of compounds 5a–t as potential anti-inflammatory agents. We used primary rat glial cells treated with lipopolysaccharide (LPS) to induce the production of nitrites and ROS as a model of glial activation. Nitrite production is directly proportional to the expression of the iNOS, that is over-expressed when LPS activates glial cells. ROS production is proportional to NOX activation after stimulation with LPS. Results are summarized in Table 2 as IC50s of nitrite production reduction and ROS production reduction. We have included sulforaphane as control in all experiments (see the Supporting Information).
Besides the increase in nitrite production, it is well known that LPS stimulation of microglia also induces the activation of NOX, which induces superoxide free radical production. In fact, this mechanism is synergistic with the expression of iNOS and the production of nitrites. In this respect, there is a body of evidence showing that NOX activation is a major contributor to ROS oxidative stress and neuronal death in AD[57][58]. […] In general, potency to reduce ROS production increased from ortho to para and meta as observed above.
(§2) Primary glial cells were cultured in bottom transparent 96-well black plates following standard protocol. Cells were pre-incubated with the corresponding compound at the selected concentrations, for 24 hours, and therafter, co-incubated with the corresponding compound and LPS (1 μM) during 18 h more. Then, treatments were removed and cells were loaded with the fluorescent probe 2′,7′-dichlorodihydrofluorescein diacetate (H2DCFDA) (10 μM) for 45 minutes in serum free glial culture medium. All experiments included cells treated with culture medium alone (basal). Cells were washed twice with culture medium and fluorescence intensity was recorded in a Fluostar Optima multiwall pate reader (BMG Labtech, Offenburg, Germany) at 485/520 nm as excitation and emission wavelengths respectively, each hour, during 3 hours period. Data were normalized with respect to basal conditions that were considered as 100%.
as §2, with “µM)” for “μM)”, “2',7'-dichlorodihydrofluorescein” for “2′,7′-dichlorodihydrofluorescein”
(§3) Mixed glial cultures were obtained from cerebral cortex of 2-5 day-old Sprague-Dawley rats. After removal of blood vessels and meninges, the forebrains were dissociated in DMEM/F12 medium. After mechanical dissociation, cells were plated (3x10^5 cells/ml) in DMEM/F12 medium with 20% fetal bovine serum (FBS) and 1 % penicillin/streptomycin (10,000 units), at 37 °C and in a 5 % CO2-supplemented air atmosphere. After 5 days, medium was substituted by DMEM/F12 medium with 10 % FBS. Cells were cultured for 7-10 days before treatment.

The test system of series [5] is primary rat glial cells. The experiment in a line: Nitrite production in LPS-stimulated primary glial cultures (Griess). The class given is cell-based. As to conditions: Glial cell, 24 h pre-incubation, 18 h co-incubation with LPS 1 μg/mL, read-out: IC50 nitrite reduction.
From the text: as §1
Glial cells were pre-incubated with increasing concentrations of compounds for 24 hours. Then, treatments were removed and cells were incubated with LPS (1 μg/mL) alone or in presence of each compound at the desired concentration. Nitrite production was assessed 18 hours later by modified Griess assay. Briefly, samples (150 μl) were mixed with dapsone (75 μl) and NEDA (75 μl), and the mixture was incubated at room temperature for 5 min. Light absorption was measured at 550 nm in a microplate reader (Labtech, Offenburg, Germany). All data were normalized to basal nitrite production, considering this value as 100% of nitrite production. IC50 values were calculated from dose-response curves represented as percentage of nitrite production reduction induced by the different concentrations of each compound.
as §3
Primary rat glial cells were treated with compounds 5a-t at increasing concentrations (3, 10, 30 and 60 µM) during 24 h. Thereafter, treatments were removed and glial cells were co-incubated with increasing concentrations of each compound and LPS (1 µg/mL) for 18 h more. At the end of this period, supernatant was collected and the presence of nitrites was analyzed by the Griess method with modifications.^20 Each plate included non-treated cells as basal nitrite production, sulforaphane (SFN, 10 µM) as positive control. Briefly, samples (150 µl) were mixed with DAPSONE (75 µl) and NEDA (75 µl), and the mixture was incubated at room temperature for 5 min. Light absorption was measured at 550 nm in a microplate reader (Labtech, Offenburg, Germany). All data were normalized to basal nitrite production, considering this value as 100% of nitrite production. EC50 values were calculated from dose-response curves represented as percentage of nitrite production reduction induced by the different concentrations of each compound. Concentration response curves were fitted by non-linear regression analysis of individual concentration-response curves using GraphPad Prism software (San Diego, CA, USA). EC50 values are expressed as mean ± SEM of four different experiments in triplicate.
A general note: The Griess reaction detects nitrite, a stable product of nitric oxide.

T1 sequence (P49841 whole entry): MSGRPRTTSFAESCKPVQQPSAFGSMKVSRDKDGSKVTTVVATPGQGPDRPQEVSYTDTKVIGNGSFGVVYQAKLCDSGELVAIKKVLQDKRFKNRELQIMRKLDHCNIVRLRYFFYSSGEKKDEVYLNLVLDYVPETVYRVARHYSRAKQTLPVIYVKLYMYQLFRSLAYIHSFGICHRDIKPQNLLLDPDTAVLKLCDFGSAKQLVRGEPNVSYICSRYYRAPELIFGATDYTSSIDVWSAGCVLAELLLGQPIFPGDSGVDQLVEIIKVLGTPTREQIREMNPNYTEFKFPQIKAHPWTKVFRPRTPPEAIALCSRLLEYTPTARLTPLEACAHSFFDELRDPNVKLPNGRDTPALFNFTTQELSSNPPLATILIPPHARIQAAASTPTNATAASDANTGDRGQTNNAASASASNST

Turning to `Cc1[nH]nc2c1C(c1ccccc1)C(C#N)=C(N)O2` (stereo not shown) [Compound 5a, 6-Amino-3-methyl-4-phenyl-2,4-dihydropyrano[2,3-c]pyrazole-5-carbonitrile], in series [1], the “SH-SY5Y LD50” value is greater than 100 µM. Moreover, in series [2], the “HepG2 LD50” value is on record as greater than 100 µM. Moreover, the IC50 is greater than 30 µM in series [3], greater than 60 µM in series [4] and greater than 60 µM in series [5].
As for `COc1ccccc1C1C(C#N)=C(N)Oc2n[nH]c(C)c21` (stereo not shown) [Compound 5b, 6-Amino-4-(2-methoxyphenyl)-3-methyl-2,4-dihydropyrano[2,3-c]pyrazole-5-carbonitrile], in series [1], the “SH-SY5Y LD50” value is given as greater than 100 µM. Besides, in series [2], the “HepG2 LD50” value is greater than 100 µM. In addition, the Ki in series [3] is 11.5 µM. In addition, the values for the half-maximal inhibitory concentration (IC50) in series [3], in series [4] and in series [5] were 16.4 ± 1.8 µM, greater than 60 µM and 43.6 ± 6.45 µM, respectively.
For the compound `COc1cccc(C2C(C#N)=C(N)Oc3n[nH]c(C)c32)c1` (stereo not shown) [Compound 5c, 6-Amino-4-(3-methoxyphenyl)-3-methyl-2,4-dihydropyrano[2,3-c]pyrazole-5-carbonitrile], in series [1], the “SH-SY5Y LD50” value is on record as greater than 100 µM. For the same compound, in series [2], the “HepG2 LD50” value is reported as greater than 100 µM. The Ki in series [3] is 5.04 µM. The results for the IC50 in series [3], in series [4] and in series [5] were 7.2 ± 0.7 µM, 18.1 ± 5.36 µM and 12.9 ± 0.86 µM, respectively.
Regarding `COc1ccc(C2C(C#N)=C(N)Oc3n[nH]c(C)c32)cc1` (stereo not shown) [Compound 5d, 6-Amino-4-(4-methoxyphenyl)-3-methyl-2,4-dihydropyrano[2,3-c]pyrazole-5-carbonitrile], in series [1], the “SH-SY5Y LD50” value is listed as greater than 100 µM. Further, the “HepG2 LD50” value in series [2] is greater than 100 µM. Besides, the Ki in series [3] is 4.63 µM. Moreover, the IC50 in series [3] stood at 6.6 ± 1.7 µM; in series [4], 19.9 ± 4.89 µM; in series [5], 35.4 ± 2.57 µM.
As for `Cc1ccccc1C1C(C#N)=C(N)Oc2[nH]nc(C)c21` (stereo not shown) [Compound 5e, 6-Amino-3-methyl-4-(2-methylphenyl)-2,4-dihydropyrano[2,3-c]pyrazole-5-carbonitrile], the “SH-SY5Y LD50” value in series [1] is given as greater than 100 µM. For the same compound, the “HepG2 LD50” value in series [2] is reported as greater than 100 µM. Besides, the IC50 was greater than 30 µM in series [3], 60 ± 0.29 µM in series [4] and 34.3 ± 3.84 µM in series [5].
As for `Cc1cccc(C2C(C#N)=C(N)Oc3n[nH]c(C)c32)c1` (stereo not shown) [Compound 5f, 6-Amino-3-methyl-4-(3-methylphenyl)-2,4-dihydropyrano[2,3-c]pyrazole-5-carbonitrile], the “SH-SY5Y LD50” value in series [1] was greater than 100 µM. Also, in series [2], the “HepG2 LD50” value was greater than 100 µM. The Ki in series [3] is 15 µM. Besides, the IC50 in series [3] was determined as 21.4 ± 4.6 µM; in series [4], 32.6 ± 6.79 µM; in series [5], 13.4 ± 1.44 µM.
For the compound `Cc1ccc(C2C(C#N)=C(N)Oc3[nH]nc(C)c32)cc1` (stereo not shown) [Compound 5g, 6-Amino-3-methyl-4-(4-methylphenyl)-2,4-dihydropyrano[2,3-c]pyrazole-5-carbonitrile], the “SH-SY5Y LD50” value in series [1] was greater than 100 µM. The “HepG2 LD50” value in series [2] is given as greater than 100 µM. The Ki in series [3] is 12.3 µM. Besides, the concentration for half-maximal inhibition (IC50) in series [3] was found to be 17.5 ± 1.9 µM; in series [4] it was 45.1 ± 5.33 µM; in series [5], 22.3 ± 3.82 µM.
`Cc1n[nH]c2c1C(c1ccc(F)cc1)C(C#N)=C(N)O2` (stereo not shown) [Compound 5h, 6-Amino-4-(4-fluorophenyl)-3-methyl-2,4-dihydropyrano[2,3-c]pyrazole-5-carbonitrile]: the “SH-SY5Y LD50” value in series [1] was greater than 100 µM. For the same compound, the “HepG2 LD50” value in series [2] was greater than 100 µM. The Ki in series [3] is 12.5 µM. In addition, the IC50 in series [3] is 17.9 ± 1.5 µM; in series [4] it was 37 ± 4.32 µM; in series [5], 11.3 ± 1.15 µM.
Consider `Cc1n[nH]c2c1C(c1ccccc1Cl)C(C#N)=C(N)O2` (stereo not shown) [Compound 5i, 6-Amino-4-(2-chlorophenyl)-3-methyl-2,4-dihydropyrano[2,3-c]pyrazole-5-carbonitrile], for which the “SH-SY5Y LD50” value in series [1] is recorded as greater than 100 µM. In addition, the “HepG2 LD50” value in series [2] is greater than 100 µM. The IC50 in series [4] and in series [5] was greater than 60 µM each time.
As for `Cc1[nH]nc2c1C(c1cccc(Cl)c1)C(C#N)=C(N)O2` (stereo not shown) [Compound 5j, 6-Amino-4-(3-chlorophenyl)-3-methyl-2,4-dihydropyrano[2,3-c]pyrazole-5-carbonitrile], the “SH-SY5Y LD50” value in series [1] is given as greater than 100 µM. The “HepG2 LD50” value in series [2] was greater than 100 µM. Besides, the Ki in series [3] is 14.4 µM. For the same compound, the concentration for half-maximal inhibition (IC50) in series [3] turned out to be 20.5 ± 8 µM; in series [4] it was 24 ± 2.58 µM; in series [5], 5.11 ± 0.65 µM.
`Cc1n[nH]c2c1C(c1ccc(Cl)cc1)C(C#N)=C(N)O2` (stereo not shown) [Compound 5k, 6-Amino-4-(4-chlorophenyl)-3-methyl-2,4-dihydropyrano[2,3-c]pyrazole-5-carbonitrile]: the “SH-SY5Y LD50” value in series [1] is greater than 100 µM. Moreover, the “HepG2 LD50” value in series [2] was greater than 100 µM. Also, the Ki in series [3] is 4.41 µM. The results for the IC50 in series [3], in series [4] and in series [5] were 6.29 ± 2.6 µM, greater than 60 µM and 26 ± 2.74 µM, respectively.
For `Cc1n[nH]c2c1C(c1ccccc1Br)C(C#N)=C(N)O2` (stereo not shown) [Compound 5l, 6-Amino-4-(2-bromophenyl)-3-methyl-2,4-dihydropyrano[2,3-c]pyrazole-5-carbonitrile], the “SH-SY5Y LD50” value in series [1] was greater than 100 µM. Also, in series [2], the “HepG2 LD50” value is on record as greater than 100 µM. The values for the concentration for half-maximal inhibition (IC50) in series [3], in series [4] and in series [5] were greater than 30 µM, 38.6 ± 7.16 µM and 26.7 ± 1.95 µM, respectively.
Consider `Cc1[nH]nc2c1C(c1ccc(Br)cc1)C(C#N)=C(N)O2` (stereo not shown) [Compound 5m, 6-Amino-4-(4-bromophenyl)-3-methyl-2,4-dihydropyrano[2,3-c]pyrazole-5-carbonitrile], for which the “SH-SY5Y LD50” value in series [1] is recorded as greater than 100 µM. The “HepG2 LD50” value in series [2] was greater than 100 µM. Also, in series [3], the Ki was 2.64 µM. The IC50 in series [3] is 3.77 ± 2 µM; in series [4], 33.2 ± 7.36 µM; in series [5], 11.4 ± 2.27 µM.
Regarding `Cc1[nH]nc2c1C(c1ccccc1[N+](=O)[O-])C(C#N)=C(N)O2` (stereo not shown) [Compound 5n, 6-Amino-3-methyl-4-(2-nitrophenyl)-2,4-dihydropyrano[2,3-c]pyrazole-5-carbonitrile], in series [1], the “SH-SY5Y LD50” value is greater than 100 µM. The “HepG2 LD50” value in series [2] is recorded as greater than 100 µM. In series [3], the Ki is 2.72 µM. Further, the IC50 is 3.9 µM and 3.89 µM in series [3]; 19.9 ± 4.89 µM in series [4]; 15.8 ± 5.23 µM in series [5].
